Molecular target: Lysine-specific histone demethylase 1A (Homo sapiens, UniProt O60341)
Assay: Inhibition of human LSD1 assessed as reduction in H2O2 production using H3K4me2 (1 to 20 residues) peptide as substrate preincubated for 10 mins followed by substrate addition measured after 30 mins in presence of DTT by peroxidase coupled enzyme assay

CC(C)C[C@H](NC(=O)[C@H](Cc1ccccc1)NC(=O)[C@H](CO)NC(=O)[C@H](CCCNC(=N)N)NC(=O)[C@@H]1CCCN1C(=O)CO)C(=O)N[C@H](C(=O)N[C@@H](CCCNC(=N)N)C(=O)N[C@@H](CCCCN)C(=O)N1CCC[C@H]1C(=O)N[C@@H](CCCCNC(=O)CO)C(N)=O)C(C)C
Ki: 190 µM

From ChEMBL document CHEMBL3875223, “Activation of lysine-specific demethylase 1 inhibitor peptide by redox-controlled cleavage of a traceless linker” (Bioorg Med Chem, 2017)
